Results: patent publication US20100273203A1 (priority 2009, published 2010)
Like-named read-outs stand apart in the source and are kept apart here.

Tests used:
CYP2C9 [1] = target: T1, CYP2C9 (Homo sapiens, UniProt P11712); conditions: read-out: reported Km; cited from earlier work
[2] = LC-MS/MS urinary metabolic profile of patients receiving warfarin; conditions: for % R / % S (proportion in (S)-enantiomeric form) / % conjugated (proportion glucuronidated) / urinary concentration: urine; for urinary concentration: free and conjugated
Text: All chemicals used in this study were of at least reagent grade. Unless otherwise specified, all chemicals and reagents were purchased from either Sigma-Aldrich (St. Louis, Mo.) or Thermo Fisher Scientific (Waltham, Mass.). […] Ethyl alcohol (100%) was purchased from AAPER (Shelbyville, Ky.). Re-combinant CYP2C9*1, CYP3A4, CYP1A2, and CYP2C19 were expressed in baculovirus-infected insect cells and purchased from BD Biosciences (San Jose, Calif.). Commercially available urine specimens from three females (F84, F85, and F87) were provided by the Emergency Response and Air Toxicants Branch, Division of Laboratory Science National Center for Environmental Health Centers for Disease Control and Prevention (DeKalb County, Ga.). Patient studies were conducted under IRB-approved protocols, and all patients signed informed consent documentation.
This analytical phase was accomplished by reverse-phase HPLC using a 4.6 mm×150 mm C18 Zorbax Eclipse 5 μm XDB-C18 column provided by Agilent (Santa Clara, Calif.). The operating temperature was 40° C., and the sample injection volume was 5.0 μL. HPLC mobile phases consisted H2O (0.1% acetic acid v/v) (A) and methanol (0.1% acetic acid v/v) (B). The flow rate was 1 mL/min. […] The total run time per sample was 10 min. Specific MS/MS experimental conditions used in this study are noted in Table 1.
To determine the relative abundance of the (R)-and (S)-enantiomers of each metabolite, a 4.6 mm×25 cm Chirobiotic V5 μm column supplied by Supelco (Bellefonte, Pa.) was incorporated during the second analytical phase. Mobile phases consisted of H2O (0.1% acetic acid v/v) (A) and acetonitrile (0.1% acetic acid v/v) (B) with a flow rate of 800 μL/min. Enantiomeric separations were accomplished under isocratic conditions (80% A and 20% B). The sample injection volume was 15.0 μL. Enantiomeric MS/MS analyses were performed in negative ion mode by electrospray ionization (ESI) using a Turbo IonSpray source. A total run time of 20 min was required for adequate resolution. Specific MS/MS experimental conditions used in this study are noted in the Table 2.
Each response was normalized to that of the internal standard, 7-hydroxycoumarin (10 μM). […] Measurements of these three metabolites were calculated by taking the difference of the amount measured in the first analytical phase, which contained both (R)-and (S) isomers from the amount of the (S)-isomer measured in the second analytical phase (eq 3). Glucuronidated metabolites were measured by incubating 250 μL of urine with 2000 units of GUS in 100 mM sodium acetate buffer, pH 5.0. The final volume for each of these reactions was 1 mL. Control reactions omitting GUS were included with each sample set. Reactions were incubated overnight at 37° C., after which they were stored at −80° C. Immediately before analysis, both samples were diluted with an equal volume of ethanol containing 7-hydroxycoumarin (10 μM final concentration). The difference between GUS-treated samples and controls represented the amount of glucuronidated metabolites present.

CYP1A2 [3] = target: T2, CYP1A2 (Homo sapiens, UniProt P05177); assay: biochemical
T2 sequence (P05177 1-516): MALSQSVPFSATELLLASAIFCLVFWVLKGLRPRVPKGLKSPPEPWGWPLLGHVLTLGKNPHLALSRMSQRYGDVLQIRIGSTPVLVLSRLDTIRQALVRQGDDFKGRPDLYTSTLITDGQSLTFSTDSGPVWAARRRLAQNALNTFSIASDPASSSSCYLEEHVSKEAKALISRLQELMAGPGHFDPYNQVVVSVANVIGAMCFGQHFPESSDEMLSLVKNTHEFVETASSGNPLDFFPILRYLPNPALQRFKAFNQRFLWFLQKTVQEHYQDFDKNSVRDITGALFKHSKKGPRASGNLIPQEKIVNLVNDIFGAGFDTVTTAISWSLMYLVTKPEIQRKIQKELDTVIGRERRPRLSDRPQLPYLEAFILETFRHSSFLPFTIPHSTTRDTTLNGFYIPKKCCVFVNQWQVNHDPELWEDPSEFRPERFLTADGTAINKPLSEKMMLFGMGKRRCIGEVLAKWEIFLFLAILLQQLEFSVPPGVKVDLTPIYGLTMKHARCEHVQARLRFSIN

UGT1A9 = UGT1A9 (Homo sapiens, UniProt O60656); conditions: glucuronidation; racemic OHWars
Text: (§1) The characterization of hepatic and extrahepatic glucuronidation may be made based on glucuronidation studies with 100 commercially available HLM and 100 intestinal microsomal preparations available in our laboratory. […] Both racemic mixtures and separated R and S enantiomers may be assayed. […] Activities of extrahepatic (UGT1A8 and UGT1A10) and hepatic (UGT1A1, UGT1A3, and UGT1A9) isoforms may be compared to that of their respective microsomal preparations, and assign the contribution of specific UGTs to product formation by the human samples.

UGT1A8 = UGT1A8 (Homo sapiens, UniProt Q9HAW9); conditions: glucuronidation; racemic OHWars
Text: as §1

UGT1A10 = UGT1A10 (Homo sapiens, UniProt Q9HAW8); conditions: glucuronidation; racemic OHWars
Text: as §1

plasma proteins = conditions: cited from earlier work
[4] = target: CYP2C9 present in the human liver microsomes (Homo sapiens, UniProt P11712); conditions: S-warfarin metabolism; 7-hydroxywarfarin formation as marker
Method: (§2) For each hydroxywarfarin, at least 4 independent experimental replicates were performed.
(§3) MS/MS experimental conditions was used as described previously (6).
(§4) The most probable inhibition mechanism for recombinant CYP2C9 and human liver microsome reactions was identified using DynaFit ver. 3.28 (Biokin, Ltd) (20). Data from each set of hydroxywarfarin experiments were fit to traditional reversible inhibition mechanisms (competitive, uncompetitive, noncompetitive, or mixed). The respective kinetic parameters (Ki and Ki′) were set as variables, while the kinetic parameters (Vmax and Km) were constants based on values obtained from uninhibited reactions. The most probable mechanism was then identified using the Akaike Information Criterion (AICc) for model discrimination (21).

CYP2C9*1 [5] = target: T3, CYP2C9*1 (Homo sapiens, UniProt P11712); conditions: S-warfarin metabolism, 7-hydroxywarfarin formation as marker
Method: as §2, §3, §4

CYP3A4 [6] = target: T4, CYP3A4 (Homo sapiens, UniProt P08684); conditions: read-out: IC50 for CYP marker reaction; P450-Glo marker reaction
CYP2C9 [7] = target: T1, CYP2C9; conditions: read-out: IC50 toward recombinant CYP2C9 activity; P450-Glo, 50 μM Luciferin H; racemic compounds
Method: Hydroxywarfarins were screened for inhibitory potential toward recombinant CYP2C9 using the Promega (Madison, Wis.) CY2C9 P450-Glo™ Assay using the manufacturer's protocol. These IC50 studies were analyzed on a PerkinElmer Victor^3V™ 1420 Multilabel Counter. Recombinant CYP2C9, 50 nM, was incubated with 50 μM Luciferin H, and six concentrations of each hydroxywarfarin from approximately 10 nM to 4 mM final concentration, as optimized for each compound. The appropriate volume of hydroxywarfarin stocks in 100% ethanol were added to each well prior to addition of the substrate and enzyme, and the ethanol was allowed to evaporate at room temperature to minimize solvent effects on CYP2C9 activity. A final DMSO concentration of 1% was present in the reactions due to the P450-Glo Luciferin H. The reaction was initiated upon addition of an NADPH regenerating solution (BD Biosciences) and quenched with a luciferase quench (Promega) at 30 min.

CYP2C9*1 [8] = target: T3, CYP2C9*1; conditions: read-out: IC50 for CYP marker reaction; P450-Glo marker reaction
CYP1A2 [9] = target: T2, CYP1A2; conditions: read-out: IC50 for CYP marker reaction; P450-Glo marker reaction
CYP3A7 = CYP3A7 (Homo sapiens, UniProt P24462); assay: Steady-state metabolism of R- and S-warfarin by recombinant CYP3A7
Method: (§5) Reactions were initiated upon addition of an NADPH regenerating system [2 μU μL-1 glucose 6-phosphate dehydrogenase, 10 mM glucose 6-phosphate, 2 mM MgCl2, 1 mM NADP^+]. […] The quenched reactions were centrifuged and the resulting supernatant containing substrate and products resolved and quantified by UPLC-MS/MS. Each experiment was performed in at least 4 independent experimental replicates.
(§6) The flow rate was constant at 250 μL/min. […] Electrospray conditions were as follows: spray voltage of 4500 V, sheath gas pressure 45, auxiliary gas pressure 20, and collision energy of 15-15 eV (compound specific).
(§7) Final metabolite concentrations were calculated from the ratio of metabolite area to internal standard area in the sample and compared to calibration curves as determined from the UPLC-MS/MS method. All compounds were quantified relative to authentic standards. The resulting kinetic data were analyzed with GraphPad Prism 5® software. Non-linear regression analysis was used to fit steady-state data to the Michaelis-Menten equation to determine the Vmax and Km parameters.

CYP2C9 [10] = target: T1, CYP2C9; conditions: not metabolized by CYP2C9; cited from earlier work
CYP3A4 [11] = target: T4, CYP3A4; assay: Steady-state metabolism of R- and S-warfarin by recombinant CYP3A4
Method: as §5, §6, §7

[12] = 10-hydroxywarfarin formation, 37° C, pH 7.4

T1 sequence (P11712 whole entry): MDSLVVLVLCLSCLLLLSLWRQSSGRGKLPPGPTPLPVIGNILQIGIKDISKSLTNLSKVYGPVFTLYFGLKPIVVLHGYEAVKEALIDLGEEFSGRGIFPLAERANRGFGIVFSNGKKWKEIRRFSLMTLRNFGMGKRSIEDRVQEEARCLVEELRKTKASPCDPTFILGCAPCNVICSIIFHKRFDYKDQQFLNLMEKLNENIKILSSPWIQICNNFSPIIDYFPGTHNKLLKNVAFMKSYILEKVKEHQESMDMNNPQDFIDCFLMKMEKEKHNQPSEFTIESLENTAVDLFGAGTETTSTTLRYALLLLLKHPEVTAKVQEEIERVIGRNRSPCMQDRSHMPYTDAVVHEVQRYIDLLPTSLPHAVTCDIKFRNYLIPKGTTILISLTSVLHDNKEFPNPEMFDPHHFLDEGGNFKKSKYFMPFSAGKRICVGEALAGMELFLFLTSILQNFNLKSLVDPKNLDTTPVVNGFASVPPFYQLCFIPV
T4 sequence (P08684 whole entry): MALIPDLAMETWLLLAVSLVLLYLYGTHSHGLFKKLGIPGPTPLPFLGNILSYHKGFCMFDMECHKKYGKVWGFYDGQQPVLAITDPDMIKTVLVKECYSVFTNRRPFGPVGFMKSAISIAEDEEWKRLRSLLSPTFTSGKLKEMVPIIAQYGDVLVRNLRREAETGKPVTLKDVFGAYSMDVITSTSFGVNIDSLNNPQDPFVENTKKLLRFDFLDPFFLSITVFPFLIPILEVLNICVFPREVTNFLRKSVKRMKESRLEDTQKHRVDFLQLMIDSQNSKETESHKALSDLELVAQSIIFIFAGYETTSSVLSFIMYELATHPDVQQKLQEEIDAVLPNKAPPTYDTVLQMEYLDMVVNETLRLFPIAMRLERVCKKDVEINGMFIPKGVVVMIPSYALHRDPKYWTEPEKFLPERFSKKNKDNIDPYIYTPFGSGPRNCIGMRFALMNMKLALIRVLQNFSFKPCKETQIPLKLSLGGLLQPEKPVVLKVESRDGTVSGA
Chain of CYP3A7 (P24462 whole entry): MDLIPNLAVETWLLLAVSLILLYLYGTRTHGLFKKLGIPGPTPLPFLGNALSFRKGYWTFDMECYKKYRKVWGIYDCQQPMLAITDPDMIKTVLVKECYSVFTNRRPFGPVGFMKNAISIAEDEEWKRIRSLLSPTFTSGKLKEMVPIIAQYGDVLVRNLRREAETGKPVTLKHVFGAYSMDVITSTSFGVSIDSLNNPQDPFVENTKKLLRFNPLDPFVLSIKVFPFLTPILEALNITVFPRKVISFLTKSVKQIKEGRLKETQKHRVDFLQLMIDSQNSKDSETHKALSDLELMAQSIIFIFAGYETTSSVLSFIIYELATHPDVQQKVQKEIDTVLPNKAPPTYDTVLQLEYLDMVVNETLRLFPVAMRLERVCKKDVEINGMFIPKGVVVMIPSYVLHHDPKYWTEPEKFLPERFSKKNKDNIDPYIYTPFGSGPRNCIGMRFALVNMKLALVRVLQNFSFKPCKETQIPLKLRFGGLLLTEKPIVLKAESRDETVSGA
Chain of CYP2C9 present in the human liver microsomes (P11712 whole entry): as the sequence (P11712 whole entry) above
Chain of UGT1A8 (Q9HAW9 26-530): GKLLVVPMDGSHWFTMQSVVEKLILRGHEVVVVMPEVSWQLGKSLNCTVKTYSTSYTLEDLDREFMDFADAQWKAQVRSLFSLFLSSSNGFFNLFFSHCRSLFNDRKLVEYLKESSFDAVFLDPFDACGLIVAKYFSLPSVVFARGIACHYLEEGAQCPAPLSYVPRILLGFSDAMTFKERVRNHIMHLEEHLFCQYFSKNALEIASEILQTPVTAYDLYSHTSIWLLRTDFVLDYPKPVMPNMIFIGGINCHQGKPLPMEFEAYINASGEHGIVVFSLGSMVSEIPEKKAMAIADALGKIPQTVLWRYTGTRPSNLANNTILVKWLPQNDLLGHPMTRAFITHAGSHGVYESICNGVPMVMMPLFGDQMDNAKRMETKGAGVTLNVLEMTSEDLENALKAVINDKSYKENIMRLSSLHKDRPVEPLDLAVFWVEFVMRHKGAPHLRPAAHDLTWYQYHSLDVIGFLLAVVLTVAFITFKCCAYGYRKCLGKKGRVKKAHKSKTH
Chain of UGT1A9 (O60656 26-530): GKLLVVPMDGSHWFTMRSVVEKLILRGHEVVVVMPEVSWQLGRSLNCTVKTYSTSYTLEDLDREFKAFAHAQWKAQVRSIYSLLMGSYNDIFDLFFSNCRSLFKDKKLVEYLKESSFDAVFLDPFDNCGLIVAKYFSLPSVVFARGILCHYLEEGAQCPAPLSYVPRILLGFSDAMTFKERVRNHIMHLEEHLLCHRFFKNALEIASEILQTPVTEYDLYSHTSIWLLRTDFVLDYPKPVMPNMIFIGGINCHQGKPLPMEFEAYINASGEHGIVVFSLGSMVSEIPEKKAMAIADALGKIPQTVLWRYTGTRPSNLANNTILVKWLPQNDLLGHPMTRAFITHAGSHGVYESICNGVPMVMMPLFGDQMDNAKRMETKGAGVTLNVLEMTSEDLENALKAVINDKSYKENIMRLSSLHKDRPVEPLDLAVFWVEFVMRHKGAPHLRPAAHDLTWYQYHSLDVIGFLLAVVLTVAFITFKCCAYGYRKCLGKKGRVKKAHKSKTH
Chain of UGT1A10 (Q9HAW8 26-530): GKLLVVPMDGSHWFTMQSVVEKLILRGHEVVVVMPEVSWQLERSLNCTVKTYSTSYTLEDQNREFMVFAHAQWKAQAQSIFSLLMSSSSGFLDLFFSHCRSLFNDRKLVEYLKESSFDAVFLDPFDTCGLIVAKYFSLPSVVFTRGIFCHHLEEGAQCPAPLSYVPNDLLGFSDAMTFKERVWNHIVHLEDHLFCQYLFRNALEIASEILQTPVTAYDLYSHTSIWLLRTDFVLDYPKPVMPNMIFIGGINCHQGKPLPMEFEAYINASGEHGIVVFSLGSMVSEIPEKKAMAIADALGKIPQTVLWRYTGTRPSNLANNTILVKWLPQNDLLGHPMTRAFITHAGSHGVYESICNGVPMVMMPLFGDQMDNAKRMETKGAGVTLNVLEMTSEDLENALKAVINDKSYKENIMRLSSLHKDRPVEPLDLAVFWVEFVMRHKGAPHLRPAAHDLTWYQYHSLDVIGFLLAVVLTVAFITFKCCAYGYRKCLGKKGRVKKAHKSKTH

Which Km (CYP2C9 [1]) does the source give for `CC(=O)CC(c1ccccc1)c1c(O)c2ccccc2oc1=O` (racemic) [WAR, warfarin] here?
The Km was 2.6 µM.

And the “individual concentrations in urine” value ([2]; female, human, in vivo)?
The value was 10 to 200 nM.

And the IC50 (CYP1A2 [3])?
The IC50 was 740 µM.

What does the source list for `CC(=O)CC(c1ccccc1)c1c(O)c2cccc(O)c2oc1=O` (stereo not shown) [8-OH-WAR, 8-hydroxywarfarin]?
Km (UGT1A9): 107 ± 36 µM; Vmax (UGT1A9): 1.7 ± 0.1 nmol/mg protein/min; Km (UGT1A8): 206 ± 70 µM; Vmax (UGT1A8): 1.5 ± 0.1 nmol/mg protein/min; Km (UGT1A10): 383 ± 81 µM; Vmax (UGT1A10): 25 ± 2 nmol/mg protein/min; plasma protein binding affinity relative to warfarin (plasma proteins): three- to four-fold lower affinity; Ki [4]: 13 µM; Mechanism of inhibition [4]: Competitive; Ki (CYP2C9*1 [5]): 21 µM; Mechanism of inhibition (CYP2C9*1 [5]): Mixed; Ki (CYP2C9*1 [5]; mixed inhibition): 103 µM; IC50 (CYP3A4 [6]): 240 µM; IC50 (CYP2C9 [7]): 16 µM; % R ([2]; patient F84): 100%; % S (proportion in (S)-enantiomeric form) ([2]; patient F84): 0%; % conjugated (proportion glucuronidated) ([2]; patient F84): 31%; urinary concentration ([2]; patient F84): 111 nM; % R ([2]; patient F85): 98%; % S (proportion in (S)-enantiomeric form) ([2]; patient F85): 2%; % conjugated (proportion glucuronidated) ([2]; patient F85): 53%; urinary concentration ([2]; patient F85): 109 nM; % R ([2]; patient F87): 69%; % S (proportion in (S)-enantiomeric form) ([2]; patient F87): 31%; % conjugated (proportion glucuronidated) ([2]; patient F87): 7%; urinary concentration ([2]; patient F87): 231 nM; IC50 (CYP2C9*1 [8]): 17.2 µM; IC50 (CYP1A2 [9]): 830 µM

With `CC(=O)C[C@H](c1ccccc1)c1c(O)c2ccccc2oc1=O` [R-warfarin, (R) warfarin] as the molecule, how does the Km (CYP3A7; 4′-hydroxywarfarin formation) read?
Its Km is 1390 µM.

What about the Vmax (CYP3A7; 4′-hydroxywarfarin formation) of the same molecule?
The Vmax was 260 pmol product/min/nmol P450.

And the Km (CYP3A7; 10-hydroxywarfarin formation)?
The Km was 54 µM.

And the Vmax (CYP3A7; [12])?
The Vmax was 116 pmol product/min/nmol P450.

And the Ki (CYP2C9 [10])?
The Ki was ~8 µM.

And the Km (CYP3A4 [11]; 4′-hydroxywarfarin formation)?
Its Km is 36 µM.

What about the Vmax (CYP3A4 [11]; 4′-hydroxywarfarin formation) of the same molecule?
Its Vmax is 98 pmol product/min/nmol P450.

What about the Km (CYP3A4 [11]; 10-hydroxywarfarin formation) of the same molecule?
The Km was 16 µM.

What about the Vmax (CYP3A4 [11]; [12]) of the same molecule?
Its Vmax is 1055 pmol product/min/nmol P450.
